This is an account of results in patent publication US20100286186A1, “NOVEL DICARBOXYLIC ACID LINKED AMINO ACID AND PEPTIDE PRODRUGS OF OPIOIDS AND USES THEREOF” (Shire LLC, priority 2009, published 2010).

One data set has as its system gut motility in the rat. Kind of data set: Charcoal propulsion test of GI motility in the rat. It is filed as in vivo. The following applies: oral. The procedure:
Test treatments were administered to groups of up to 10 rats fasted overnight prior to the test.
Test treatments were administered orally 60 minutes prior to a 2.0 mL oral dose of a 10% suspension of charcoal in 5% gum arabic. Thirty minutes after dosing with charcoal, the rats were sacrificed and the entire gastro-intestinal tract quickly and carefully removed. The distance the charcoal meal had traveled from the pyloric sphincter toward the caecum was measured and expressed as a percentage of both the total gut length and the length of the small intestine.

The nature of data set [1]: Plasma pharmacokinetics of meptazinol dicarboxylate linked prodrugs after oral gavage to dogs. The following applies: dog, 1 mg meptazinol base equivalents/kg. It is filed as in vivo, dog.
Data set [2] can be described thus: Plasma pharmacokinetics of meptazinol dicarboxylate linked prodrugs after oral gavage to cynomolgus monkeys. It is filed as in vivo, cynomolgus monkey. The conditions noted are these: 1 mg meptazinol base equivalents/kg.
A short description of data set [3]: Comparative oral bioavailability of oxycodone from various dicarboxylate bridged amino acid prodrugs in dogs (nine-way crossover). It is filed as in vivo, dog. The following applies: 1 mg/kg oxycodone free base; for Cmax of oxycodone / T50% Cmax of oxycodone / AUC0-t of oxycodone: mean (±sd); for AUC0-t of oxycodone: t = last quantifiable time point.
Data set [4] in a line: In vitro stability of dicarboxylate amino acid ester prodrugs in simulated gastric and intestinal juice, distilled water and pH 10 buffer (HPLC). The conditions noted are these: for Simulated gastric fluid (pH 1.1): % remaining after 2 h/37° C.: pH 1.1, 2 h; for Distilled water (pH 5.9): % remaining after 2 h/20° C.: pH 5.9, 2 h; for Simulated intestinal fluid (pH 6.8): % remaining after 2 h/37° C.: pH 6.8, 2 h; for pH 10.0 buffer: % remaining after 2 h/20° C.: pH 10.0, 2 h.

Where [5] appears, read: oral gavage of prodrug, prodrug level, BLQ = below 0.5 ng/mL.

As for `COc1ccc2c3c1O[C@H]1[C@@H](O)C=C[C@H]4[C@@H](C2)N(C)CC[C@@]341` [Codeine phosphate hemihydrate], the “% change from vehicle-treated animals, small intestine” value in the data set with gut motility in the rat (10 mg/kg) is −22.0%; in the data set on gut motility in the rat (30 mg/kg) it was −32.1%; in the data set on gut motility in the rat (100 mg/kg) it was −35.1%. For the same compound, the “% change from vehicle-treated animals, total gut length” value in the data set with gut motility in the rat (10 mg/kg) is listed as −21.7%; in the data set on gut motility in the rat (30 mg/kg), −32.0%; with gut motility in the rat (100 mg/kg), −34.9%.
Take `COc1ccc2c3c1O[C@H]1[C@@H](O)CC[C@H]4[C@@H](C2)N(C)CC[C@@]341.O=C(O)C(O)C(O)C(=O)O` [Dihydrocodeine Hydrogen Tartrate, reference compound]: the “% change from vehicle-treated animals, small intestine” value in the data set on gut motility in the rat (10 mg/kg) is given as −17.6%; in the data set with gut motility in the rat (30 mg/kg), −29.8%; with gut motility in the rat (100 mg/kg) it was −56.4%; with gut motility in the rat (300 mg/kg) it was −67.7%. The “% change from vehicle-treated animals, total gut length” value with gut motility in the rat (10 mg/kg) is −16.3%; with gut motility in the rat (30 mg/kg), −30.5%; in the data set on gut motility in the rat (100 mg/kg) it was −57.0%; with gut motility in the rat (300 mg/kg) it was −68.0%.
With `CCC1(c2cccc(OC(=O)CCCC(=O)N[C@H](C(=O)O)C(C)C)c2)CCCCN(C)C1` (stereo partly drawn) [Meptazinol [glutaryl-(S)-valine] ester], in data set [1] (oral gavage), the “systemic levels of meptazinol versus expected Cmax after the drug itself” value was “improved systemic levels of meptazinol”. The “Dog Cmax (plasma prodrug levels, in brackets)” value in data set [1] (setting [5]) is listed as 2.8 ng/mL. Besides, the “improvement in systemic levels of meptazinol” value in data set [2] (monkey, oral gavage) is recorded as “not seen in the monkey”.
With `CCC1(c2cccc(OC(=O)/C=C\C(=O)N[C@@H](Cc3ccccc3)C(=O)O)c2)CCCCN(C)C1` (stereo partly drawn) [Meptazinol [malearyl-(S)-phenylanine] ester], the “Dog Cmax (plasma prodrug levels, in brackets)” value in data set [1] (setting [5]) is 1.7 ng/mL.
Consider `CCC1(c2cccc(OC(=O)/C=C\C(=O)N[C@H](C(=O)O)C(C)C)c2)CCCCN(C)C1` (stereo partly drawn) [Meptazinol [malearyl-(S)-valine] ester], for which, in data set [1] (beagle, plasma, oral gavage of prodrug, prodrug level, BLQ = below 0.5 ng/mL, read-out: Dog Cmax (plasma prodrug levels, in brackets)), the Cmax was found to be 6 ng/mL. In addition, the “Monkey Cmax (plasma prodrug levels, in brackets)” value in data set [2] (cynomolgus monkey, oral gavage of prodrug, prodrug level, BLQ = below 0.5 ng/mL) is given as “BLQ”.
`CCC1(c2cccc(OC(=O)CC(=O)NC(C(=O)O)C(C)C)c2)CCCCN(C)C1` [Meptazinol [malonyl-(S)-valine] ester]: in data set [1] (setting [5]), the “Dog Cmax (plasma prodrug levels, in brackets)” value came out at 44 ng/mL.
With `CCC1(c2cccc(OC(=O)CC(=O)Nc3ccc(C(=O)O)cc3)c2)CCCCN(C)C1` (centres unmarked) [Meptazinol [malonyl-PABA] ester], the “Dog Cmax (plasma meptazinol)” value in data set [1] (oral gavage of prodrug, meptazinol level) is recorded as 2.1 ng/mL.
Turning to `COc1ccc2c3c1O[C@H]1C(OC(=O)CCC(=O)N4CCC[C@H]4C(=O)O)=CC[C@@]4(O)[C@@H](C2)N(C)CC[C@]314` [Oxycodone succinyl proline ester], in data set [3], the “F % (absolute oral bioavailability of oxycodone)” value is 20.8%, the Cmax of oxycodone is reported as 20.1 (±4.60) ng/mL, the “T50% Cmax of oxycodone” value is 3.4 (±0.9) h and the AUC0-t of oxycodone was 75.2 (±13.7) h. * ng/mL. Also, in data set [4], the “Simulated gastric fluid (pH 1.1): % remaining after 2 h/37° C.” value was 98%, the “Distilled water (pH 5.9): % remaining after 2 h/20° C.” value (shortened to “Distilled water (pH 5.9): % remaining”) is reported as 100%, the “Simulated intestinal fluid (pH 6.8): % remaining after 2 h/37° C.” value is listed as 96% and the “pH 10.0 buffer: % remaining after 2 h/20° C.” value (“pH 10.0 buffer: % remaining” for short) was 80%.
As to `CC[C@H](C)[C@H](NC(=O)CCCC(=O)OC1=CC[C@@]2(O)[C@H]3Cc4ccc(OC)c5c4[C@@]2(CCN3C)[C@H]1O5)C(=O)O` [Oxycodone-Glutaryl-Ile Enol Ester, oxycodone-[glutaryl-(S)-isoleucine]enol ester], in data set [3], the “F % (absolute oral bioavailability of oxycodone)” value is given as 37.4%, the Cmax of oxycodone was 46.8 (±15.0) ng/mL, the “T50% Cmax of oxycodone” value is recorded as 2.8 (±0.2) h and the AUC0-t of oxycodone was 135.7 (±27.9) h. * ng/mL. For the same compound, in data set [4], the “Simulated gastric fluid (pH 1.1): % remaining after 2 h/37° C.” value was 98%, the “Distilled water (pH 5.9): % remaining” value was 100%, the “Simulated intestinal fluid (pH 6.8): % remaining after 2 h/37° C.” value is on record as 80% and the “pH 10.0 buffer: % remaining” value is listed as 80%.
`COc1ccc2c3c1O[C@H]1C(OC(=O)CCCC(=O)N[C@H](C(=O)O)C(C)C)=CC[C@@]4(O)[C@@H](C2)N(C)CC[C@]314` [Oxycodone-Glutaryl-Val Enol Ester, oxycodone-[glutaryl-(S)-valine] enol ester]: the “T50% Cmax of oxycodone” value in data set [3] was 2.9 (±0.3) h. Moreover, in data set [4], the “Simulated gastric fluid (pH 1.1): % remaining after 2 h/37° C.” value was 98%, the “Distilled water (pH 5.9): % remaining” value is 100%, the “Simulated intestinal fluid (pH 6.8): % remaining after 2 h/37° C.” value was 87% and the “pH 10.0 buffer: % remaining” value is recorded as 75%.
`CC[C@H](C)[C@H](NC(=O)CCC(=O)OC1=CC[C@@]2(O)[C@H]3Cc4ccc(OC)c5c4[C@@]2(CCN3C)[C@H]1O5)C(=O)O` [Oxycodone-Succinyl-Ile Enol Ester, oxycodone-[succinyl-(S)-isoleucine] enol ester]: in data set [3], the “F % (absolute oral bioavailability of oxycodone)” value was 36.0%, the Cmax of oxycodone is 57.9 (±8.7) ng/mL, the “T50% Cmax of oxycodone” value is 1.6 (±0.4) h and the AUC0-t of oxycodone was 130.6 (±25.6) h. * ng/mL. Besides, in data set [4], the “Simulated gastric fluid (pH 1.1): % remaining after 2 h/37° C.” value is on record as 98%, the “Distilled water (pH 5.9): % remaining” value was 100%, the “Simulated intestinal fluid (pH 6.8): % remaining after 2 h/37° C.” value is on record as 91% and the “pH 10.0 buffer: % remaining” value is 66%.
On to `COc1ccc2c3c1OC1C(OC(=O)CCC(=O)N[C@@H](CC(C)C)C(=O)O)=CC[C@@]4(O)[C@@H](C2)N(C)CC[C@]314` (stereo partly drawn) [Oxycodone-Succinyl-Leu Enol Ester, oxycodone-[succinyl-(S)-leucine]enol ester], for which, in data set [3], the “F % (absolute oral bioavailability of oxycodone)” value worked out at 39.3%, the Cmax of oxycodone is 60.9 (±15.0) ng/mL, the “T50% Cmax of oxycodone” value is 1.9 (±0.2) h and the AUC0-t of oxycodone is recorded as 142.5 (±28.4) h. * ng/mL. Also, in data set [4], the “Simulated gastric fluid (pH 1.1): % remaining after 2 h/37° C.” value is 98%, the “Distilled water (pH 5.9): % remaining” value was 100%, the “Simulated intestinal fluid (pH 6.8): % remaining after 2 h/37° C.” value is 78% and the “pH 10.0 buffer: % remaining” value is on record as 68%.
On to `COc1ccc2c3c1OC1C(OC(=O)CCC(=O)N[C@@H](CCSC)C(=O)O)=CC[C@@]4(O)[C@@H](C2)N(C)CC[C@]314` (stereo partly drawn) [Oxycodone-Succinyl-Met Enol Ester, oxycodone-[succinyl-(S)-methionine]enol ester], for which, in data set [3], the “F % (absolute oral bioavailability of oxycodone)” value is 49.8%, the Cmax of oxycodone was 68.3 (±21.1) ng/mL, the “T50% Cmax of oxycodone” value is 2.3 (±0.8) h and the AUC0-t of oxycodone is 180.6 (±37.7) h. * ng/mL. Besides, in data set [4], the “Simulated gastric fluid (pH 1.1): % remaining after 2 h/37° C.” value is on record as 99%, the “Distilled water (pH 5.9): % remaining” value is 100%, the “Simulated intestinal fluid (pH 6.8): % remaining after 2 h/37° C.” value is 84% and the “pH 10.0 buffer: % remaining” value is reported as 58%.
Regarding `COc1ccc2c3c1O[C@H]1C(OC(=O)CCC(=O)N[C@@H](Cc4ccccc4)C(=O)O)=CC[C@@]4(O)[C@@H](C2)N(C)CC[C@]314` [Oxycodone-Succinyl-Phe Enol Ester, oxycodone-[succinyl-(S)-phenylalanine]enol ester], in data set [4], the “Simulated gastric fluid (pH 1.1): % remaining after 2 h/37° C.” value is reported as 99%, the “Distilled water (pH 5.9): % remaining” value is 100%, the “Simulated intestinal fluid (pH 6.8): % remaining after 2 h/37° C.” value is on record as 3% and the “pH 10.0 buffer: % remaining” value is recorded as 65%.

As a reminder, the Cmax is the highest concentration seen after dosing.
